Literature values as cited in patent publication US20210308071A1, “Treatment method to abort and or reduce the severity of upper respiratory viral illness as well as to prevent upper respiratory viral illness in humans” (priority 2020, published 2021).
Read-outs that look alike come from different tables or passages of the source.

Conditions: for orally administered dose excreted as the glucuronic acid conjugate within 24 hours: humans

- administered dose detected as the glucuronic acid conjugate in human urine (10 hours after ingestion of 2000 mg): 81%
- orally administered dose excreted as the glucuronic acid conjugate within 24 hours (oral 1000 mg): 81%
- orally administered dose excreted as the glucuronic acid conjugate within 24 hours (oral 2000 mg): 94%
SMILES: CC1(C)C2CCC1(C)C(O)C2 (stereo not drawn) [Borneol]
